Measurements published in US20230348450A1, “CARBOXYLIC ACID-CONTAINING COMPOUNDS AS MODULATORS OF BIS-PHOSPHOGLYCERATE MUTASE FOR THE TREATMENT OF SICKLE CELL DISEASE” (Genzyme Corporation, priority 2020, published 2023).

What follows are compounds tested against hBPGM (Homo sapiens (Human), UniProt P07738) (assay: BPGM Synthase Assay). Settings: Table 6 additional results; read-out: huBPGM: synthase Enzyme IC50.
Type: biochemical
Description: Example B1. BPGM Synthase Assay
The following materials were used in this assay: deionized water; Bisphosphoglycerate mutase (BPGM; Standard Buffer: 50 mM Tris, 0.01% Tween 20, pH 7.4); BPGM Reaction Buffer (50 mM Tris, 0.01% Tween 20, 3.23 mM KH2PO4, pH 7.4); dithiothreitol (DTT; Stock solution: 100 mM in Standard Buffer); 384-Well Black Assay Plate (Corning, P/N 3575); DMSO; BPGM Stock Solution (500 nM in BPGM Standard Buffer); Glyceraldehyde 3-phosphate dehydrogenase (GAPDH; Stock Solution: 40 U/mL in 20 mM Tris-HCL Buffer with 20% Glycerol, 1 mM EDTA, 1 mM DTT); Glyceraldehyde 3-phosphate (GAP; Stock Solution: 20 mM in BPGM Standard Buffer); 3-PG Stock Solution (500 μM in BPGM Standard Buffer); Nicotinamide adenine dinucleotide (NAD; Stock Solution: 50 mM in BPGM Standard Buffer); Koningic Acid (1 mM Stock in DMSO); Resazurin Stock Solution (10 mM in DMSO); Diaphorase Stock Solution (40 U/mL in BPGM Standard Buffer); DTT Reaction Buffer (1 mM DTT in BPGM Reaction Buffer); Enzyme Solution (5 nM BPGM, 0.4 U/mL GAPDH in DTT Reaction Buffer); GAPDH Solution (0.4 U/mL GAPDH in DTT Reaction Buffer); Substrate Solution (2 mM NAD, 20 μM 3PG, 800 μM GAP in DTT Reaction Buffer); and Resazurin Solution (5 U/mL Diaphorase, 500 μM Resazurin in BPGM Standard Buffer).
To the assay plate was added Enzyme Solution (20 uL) to columns 2-22 and 24 of the assay plate. To columns 1 and 23 was added GAPDH Solution (20 uL). A separate compound plate was prepared at the desired concentrations and all wells were normalized with 5% DMSO. The compound plate was incubated for 30 minutes at RT. Next, the substrate solution (20 μL) was dispensed to all reaction wells and the plate was incubated for 60 minutes at RT. Koningic acid (1 μL) was added and the plate was incubated for 10 minutes at RT. During this time period, the NADH fluorescence was read at ex: 360/em: 460. Next, Resazurin Solution (10 μL) was added to all reaction wells and the plate was incubated for 30 minutes at RT. The resorufin fluorescence was then read at ex:544/em:590.

Chain of hBPGM (P07738 whole entry, looked up): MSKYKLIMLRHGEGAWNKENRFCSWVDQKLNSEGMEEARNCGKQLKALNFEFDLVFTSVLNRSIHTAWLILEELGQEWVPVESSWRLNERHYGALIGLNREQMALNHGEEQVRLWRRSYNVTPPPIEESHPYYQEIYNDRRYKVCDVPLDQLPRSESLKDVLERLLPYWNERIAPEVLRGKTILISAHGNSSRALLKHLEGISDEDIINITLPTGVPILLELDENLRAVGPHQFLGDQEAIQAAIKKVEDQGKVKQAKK

SMILES | IC50
Cc1nc(COc2ccc(C(F)(F)F)cn2)sc1-c1cccc(-c2ccc(C(=O)O)cc2)n1 [Example 56] | 3.3 µM
Cc1nc(COc2ccccn2)sc1-c1ccc(-c2ccc(C(=O)O)c(O)c2)s1 [Example 340] | 3.6 µM
Cc1nc(COc2ccc(F)cn2)sc1-c1cnn(-c2ccc(C(=O)O)c(O)c2)c1 [Example 20] | 2.1 µM
Cc1nc(COCc2ccccn2)sc1-c1csc(-c2cc(O)c(C(=O)O)cc2F)n1 [Example 144] | 0.2 µM
Cc1nc(C(=O)O)sc1-c1cccc(-c2cc(F)c3[nH]nnc3c2F)n1 [Example 342] | 1.9 µM
Cc1nc(COc2ccc(F)cn2)sc1-c1cccc(-c2ccc(C(=O)O)c(C(F)F)c2)n1 [Example 22] | 0.29 µM
O=C(O)c1ccc(-c2nc(-c3ccnc(CO)c3)cs2)cc1 [Example 38] | > 25 µM
Cc1nc(COc2ncccn2)sc1-c1cccc(-c2ccc(C(=O)O)cc2C(C)C)n1 [Example 28] | > 25 µM
Cc1nc(C)c(-c2csc(-c3ccc(O)c(C(=O)O)c3)n2)s1 [Example 321] | 7.3 µM
Cc1nc(COc2ccc(F)cn2)sc1-c1ccn(-c2ccc(C(=O)O)c(C(F)F)c2)n1 [Example 17] | 0.89 µM
Cc1nc(CO)sc1-c1cccc(-c2c[nH]c(C(=O)O)c2)n1 [Example 77] | > 25 µM
Cc1ncc(-c2cccc(-c3ccc(C(=O)O)c(O)c3)c2)s1 [Example 325] | 3.5 µM
COC(=O)NCc1cc(C)c(-c2csc(-c3cc(O)c(C(=O)O)cc3F)n2)s1 [Example 179] | 0.6 µM
Cc1nc(CO)sc1-c1cccc(-c2ccc(C(=O)NCC(=O)N3CCC(C(=O)O)CC3)cc2)n1 [Example 89] | > 25 µM
Cc1nc(COc2ncccn2)sc1-c1cccc(-c2ccc(C(=O)O)c(C(=O)O)c2)n1 [Example 70] | 11 µM
Cc1ccc(C#N)c(OCCn2cc(-c3cccc(-c4ccc(C(=O)O)c(O)c4)c3)cn2)n1 [Example 110] | 8.8 µM
Cc1nc(COc2ccc(F)cn2)sc1-c1ccn(-c2ccc(C(=O)O)cc2)n1 [Example 18] | 0.65 µM
Cc1ccc(C#N)c(OCc2nc(C)c(-c3cccc(-c4ccc(C(=O)O)c(O)c4)c3)s2)n1 [Example 268] | 1.2 µM
Cc1nc(COc2ncccn2)sc1-c1cccc(-c2ccc(C(=O)O)c(C(F)F)c2)n1 [Example 54] | 0.18 µM
Cc1nc(COc2ccccn2)sc1-c1cccc(-c2ccc(C(=O)O)cn2)c1 [Example 69] | 5.5 µM
Cc1nc(COc2ncc(C(F)(F)F)cn2)sc1-c1cccc(-c2ccc(C(=O)O)cc2)n1 [Example 43] | 23 µM
CNC(=O)CCc1nc(C)c(-c2cccc(-c3ccc(C(=O)O)c(O)c3)c2)s1 [Example 264] | 7 µM
Cc1nc(C)c(CCOc2ccc(C(=O)O)c(O)c2)s1 [Example 336] | > 25 µM
Cc1nc(COc2ncccn2)sc1-c1cccc(-c2ccc(C(=O)NCC(=O)N3CCC(C(=O)O)CC3)cc2)n1 [Example 90] | > 25 µM

SMILES | IC50
O=C(O)c1ccc(-c2nc(-c3ccnc(COc4ncccn4)c3)cs2)cc1 [Example 37] | 7.6 µM
Cc1nc(C)c(-c2cccc(-c3ccc(C(=O)O)cc3)c2C)s1 [Example 306] | > 250 µM
Cc1nc(COc2ncccn2)sc1-c1cccc(-c2cnc(C(=O)O)nc2)n1 [Example 85] | > 25 µM
Cc1nc(C)c(NC(=O)Nc2ccc(C(=O)O)c(O)c2)s1 [Example 337] | > 25 µM
Cc1nc(Cn2c(C)ccc(C#N)c2=O)sc1-c1cccc(-c2ccc(C(=O)O)c(O)c2)c1 [Example 295] | 0.6 µM
Cc1nc(COc2ccc(F)cn2)sc1-c1ccc(-c2ccc(C(=O)O)c(O)c2)s1 [Example 341] | 4.1 µM
Cc1nc(COC2CCCCO2)sc1-c1cccc(-c2ccc(C(=O)O)cc2)n1 (stereo not shown) [Example 55] | 0.38 µM
Cc1nc(COc2ccc(F)cn2)sc1-c1cnn(-c2ccc(C(=O)O)cc2)n1 [Example 19] | 0.85 µM
COC(=O)NCc1nc(C)c(-c2csc(-c3cc(N)c(C(=O)O)cc3F)n2)s1 [Example 195] | 1.2 µM
Cc1nc(C)c(-c2ccc(C)c(-c3ccc(C(=O)O)cc3)c2)s1 [Example 305] | 82 µM
Cc1nc(CN2CCOCC2=O)sc1-c1cccc(-c2ccc(C(=O)O)c(O)c2)c1 [Example 261] | 20 µM
Cc1ccc(C#N)c(OCCn2cc(-c3cccc(-c4ccc(C(=O)O)c(O)c4)c3)cn2)n1 [Example 111] | 15 µM
Cc1nc(CNC(C)c2cccnc2)sc1-c1csc(-c2cc(O)c(C(=O)O)cc2F)n1 (stereo not shown) [Example 170] | 1.2 µM
Cc1nc(C)c(-c2ccnc(-c3ccc(C(=O)O)c(O)c3)c2)s1 [Example 310] | 2 µM
Cc1nc(C)c(-c2nsc(-c3cc(O)c(C(=O)O)cc3F)n2)s1 [Example 205] | 1.1 µM
Cc1nc(C)c(-c2ccc(O)c(-c3ccc(C(=O)O)cc3)c2)s1 [Example 304] | 54 µM
COC(=O)NCc1nc(C)c(-c2csc(-c3cc(NC(=O)OC)c(C(=O)O)cc3F)n2)s1 [Example 196] | 5.6 µM
Cc1nc(Cc2ccccn2)sc1-c1cccc(-c2ccc(C(=O)O)cc2)c1 [Example 287] | 0.91 µM
Cc1nc(CO[C@@H]2CCCOC2)sc1-c1cccc(-c2ccc(C(=O)O)cc2)c1 [Example 47] | 0.98 µM
COC(=O)NCc1ccc(-c2csc(-c3cc(O)c(C(=O)O)cc3F)n2)c(C)n1 [Example 206] | 2 µM
Cc1ccc(C#N)c(OCCc2cnn(-c3cccc(-c4ccc(C(=O)O)c(O)c4)c3)c2)n1 [Example 303] | 17 µM
Cc1nc(C)c(N2CCN(c3ccc(C(=O)O)c(O)c3)C2=O)s1 [Example 339] | > 25 µM
Cc1nc(COc2ncccn2)sc1-c1cccc(-c2cc(C(=O)O)nn2C(C)C)n1 [Example 30] | 15 µM
Cc1nc(COc2ccccn2)sc1-c1cccc(-c2ccc(C(=O)O)cc2)n1 [Example 57] | > 25 µM

SMILES | IC50
Cc1nc(COc2ncccn2)sc1-c1cccc(-c2ccc(C(=O)N3CCC(OCC(=O)O)CC3)cc2)n1 [Example 84] | > 25 µM
Cc1nc(COc2ccc(C(F)(F)F)nc2)sc1-c1cccc(-c2ccc(C(=O)O)cc2)n1 [Example 61] | 1.3 µM
Cc1nc(C)c(-c2coc(-c3ccc(C(=O)O)c(O)c3)n2)s1 [Example 271] | 8 µM
Cc1nc(Cc2cccc(C#N)c2)sc1-c1cccc(-c2ccc(C(=O)O)c(O)c2)c1 [Example 308] | 1 µM
Cc1nc(C)c(-c2cccc(-c3ccc(O)c(C(=O)O)c3)c2)s1 [Example 318] | 4.8 µM
COC(=O)NCc1nc(C)c(-c2cc(-c3ccc(C(=O)O)c(O)c3)sn2)s1 [Example 157] | 0.8 µM
Cc1ccc(C#N)c(OCCn2cc(-c3cccc(-c4ccc(C(=O)O)c(O)c4)c3)c(C)n2)n1 [Example 112] | 35 µM
Cc1nc(C)c(-c2cccc(-c3ccc(C(=O)O)c(O)c3)n2)s1 [Example 302] | 1.2 µM
Cc1nc(CNC(C)C)sc1-c1csc(-c2cc(O)c(C(=O)O)cc2F)n1 [Example 176] | 0.89 µM
Cc1nc(C)c(-c2cccc(-c3ccc(C(=O)O)c(O)c3)c2)s1 [Example 329] | 2.3 µM
Cc1nc(COc2ncccn2)sc1-c1cccc(-c2ccc(C(=O)O)o2)n1 [Example 33] | 11 µM
Cc1nc(COc2ncccn2)sc1-c1ccnc(-c2ccc(C(=O)O)cc2)c1 [Example 23] | 17 µM
Cc1cc(-c2ccc(C(=O)O)cc2)cc(-c2sc(C)nc2C)c1 [Example 300] | 160 µM
Cc1nc(COCC(C)(C)O)sc1-c1cccc(-c2ccc(C(=O)O)c(O)c2)c1 [Example 335] | 0.31 µM
Cc1nc(CO)sc1-c1cccc(-c2ccc(C(=O)NCC(=O)N3CCC(C(=O)O)C3)cc2)n1 (stereo not shown) [Example 92] | > 25 µM
Cc1nc(COc2ncccn2)sc1-c1cccc(-c2cc(C(=O)O)nn2C)n1 [Example 27] | 7.4 µM
CC(=O)NCCc1nc(C)c(-c2cccc(-c3ccc(C(=O)O)c(O)c3)c2)s1 [Example 258] | 11 µM
Cc1ccc(C#N)c(OCCc2nc(C)c(-c3cccc(-c4ccc(C(=O)O)c(O)c4)c3)s2)n1 [Example 107] | 1.9 µM
Cc1nc(C)c(COc2ccc(C(=O)O)c(O)c2)s1 [Example 338] | > 25 µM
Cc1nc(C)c(-c2cccc(-c3ccc(C(=O)O)c(C(F)(F)F)c3)c2)s1 [Example 314] | 100 µM
Cc1nc(C)c(-c2cncc(-c3ccc(C(=O)O)c(O)c3)c2)s1 [Example 299] | 25 µM
Cc1nc(COc2ccc(F)cn2)sc1-c1cccc(-c2ccc(C(=O)O)c(C(F)F)c2)c1 [Example 29] | 1.8 µM
